{"source": "patent US11382924B2", "about": "“Compounds and pharmaceutical uses thereof” (priority 2020, dated 2022)", "key": {"[1]": {"target": "human D-amino acid oxidase (Homo sapiens, UniProt P14920)", "sequence (P14920 whole entry)": "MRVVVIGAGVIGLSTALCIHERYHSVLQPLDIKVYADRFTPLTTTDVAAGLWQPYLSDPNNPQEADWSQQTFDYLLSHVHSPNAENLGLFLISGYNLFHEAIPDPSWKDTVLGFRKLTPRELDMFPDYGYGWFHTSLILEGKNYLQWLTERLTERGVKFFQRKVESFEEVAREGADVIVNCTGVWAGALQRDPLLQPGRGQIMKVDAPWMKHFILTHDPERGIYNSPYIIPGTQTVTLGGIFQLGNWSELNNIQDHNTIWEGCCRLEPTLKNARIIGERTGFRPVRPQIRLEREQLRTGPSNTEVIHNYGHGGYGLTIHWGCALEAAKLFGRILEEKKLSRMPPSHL", "assay": "Inhibition of human D-amino acid oxidase", "format": "biochemical", "details": "read-out: IC50 for inhibiting human D-amino acid oxidase"}, "2019-nCoV 3CLPro": {"target": "2019-nCoV 3CLPro (Severe acute respiratory syndrome coronavirus 2, UniProt P0DTD1)", "assay": "2019-nCoV 3CLPro fluorogenic protease activity assay at 3 μM (35 nM protease, pH 7.0)", "format": "biochemical", "details": "for remaining activity at 3 µM / Residual Protease Activity (%) 3 μM: 3 μM sample; for remaining activity at 3 µM: read-out: Residual Protease Activity (%) 3 μM"}, "SARS-CoV-2 3CLPro [2]": {"target": "T1, SARS-CoV-2 3CLPro (Severe acute respiratory syndrome coronavirus 2, UniProt P0DTD1)", "assay": "Native-PAGE mobility shift binding with 3CLPro", "details": "62.5-1000 μM sample mixed with 40 μM 3CLPro, 4° C., 3 hours"}, "SARS-CoV-2 [3]": {"system": "SARS-CoV-2", "details": "Choy et al., 2020; qRT-PCR, supernatant; MOI = 0.02; cited from earlier work"}, "SARS-CoV-2 3CLPro [4]": {"target": "T1, SARS-CoV-2 3CLPro", "assay": "biochemical"}, "SARS-CoV-2 [5]": {"system": "SARS-CoV-2", "assay": "SARS-CoV-2 virucidal assay in Vero E6 cells (qPCR of RdRP gene)", "format": "cell-based", "details": "MOI 0.01, 24 h"}, "[6]": {"details": "2020, cited from earlier work"}, "[7]": {"target": "T2, SARS-CoV-2 viral 3CL protease (Severe acute respiratory syndrome coronavirus 2, UniProt P0DTD1)", "assay": "3CL protease activity assay, concentration series of SNB01 (IC50)", "format": "biochemical"}, "[8]": {"target": "T2, SARS-CoV-2 viral 3CL protease", "assay": "biochemical", "details": "read-out: Residual Protease Activity (%) 1 μM"}, "[9]": {"details": "IC50, Table 34, final DMSO concentration 0.05%"}, "[10]": {"details": "Table 34, final DMSO concentration 0.05%, read-out: IC50 (converted)"}, "[11]": {"details": "Table 34, final DMSO concentration 0.40%, read-out: IC50 (converted)"}, "[12]": {"details": "50% inhibition concentration (IC50) against SARS-CoV-2 3CLPro, samples of Table 34, 50 nM protease, 6 μM substrate"}}, "note": "Values joined by “and” are separate entries in the source; they are usually repeats but may differ in a detail not shown here. Equal values may be shown once. Read-outs that look alike come from different tables or passages of the source.", "data": [{"smiles": "O=C(O)c1cc(O)c(O)c(OC(=O)c2cc(O)c(O)c(OC(=O)c3cc(O)c(O)c(O)c3)c2)c1", "note": "[Compound 14]", "values": [{"measurement": "IC50", "setting": "[1]", "result": 0.299, "unit": "µM"}]}, {"smiles": "O=C(O)c1cc(O)c(O)c(OC(=O)c2cc(O)c(O)c(OC(=O)c3cc(O)c(O)c(OC(=O)c4cc(O)c(O)c(OC(=O)c5cc(O)c(O)c(O)c5)c4)c3)c2)c1", "note": "[Compound 18]", "values": [{"measurement": "remaining activity at 3 µM", "setting": "2019-nCoV 3CLPro", "result": 56, "unit": "%"}, {"measurement": "inhibition at 3 µM", "setting": "2019-nCoV 3CLPro; 3 μM, read-out: inhibition activity against 2019-nCoV 3CLpro", "result": 44, "unit": "%"}, {"measurement": "IC50", "setting": "[1]", "result": 0.121, "unit": "µM"}]}, {"smiles": "O=C(O)c1cc(O)c(O)c(O)c1", "note": "[GA, gallic acid, reference compound]", "values": [{"measurement": "binding to 3CLPro by native-PAGE mobility shift", "setting": "SARS-CoV-2 3CLPro [2]", "result": "no significant binding"}]}, {"smiles": "Cc1cccc(C)c1OCC(=O)N[C@@H](Cc1ccccc1)[C@@H](O)C[C@H](Cc1ccccc1)NC(=O)[C@H](C(C)C)N1CCCNC1=O", "note": "[Lopinavir]", "values": [{"measurement": "EC50", "setting": "SARS-CoV-2 [3]", "result": 26.1, "unit": "µM"}, {"measurement": "Therapeutic Index (CC50/EC50)", "setting": "SARS-CoV-2 [3]", "result": 1.906}]}, {"smiles": "O=C(Oc1cc(OC(=O)c2cc(O)c(O)c(OC(=O)c3cc(O)c(O)c(OC(=O)c4cc(O)c(O)c(O)c4)c3)c2)cc(OC(=O)c2cc(O)c(O)c(OC(=O)c3cc(O)c(O)c(OC(=O)c4cc(O)c(O)c(O)c4)c3)c2)c1)c1cc(O)c(O)c(OC(=O)c2cc(O)c(O)c(OC(=O)c3cc(O)c(O)c(O)c3)c2)c1", "note": "[Phloroglucinol 9G]", "values": [{"measurement": "IC50", "setting": "SARS-CoV-2 3CLPro [4]; [9]", "result": 1.45, "unit": "µM"}, {"measurement": "IC50", "setting": "SARS-CoV-2 3CLPro [4]; [10]", "result": 1.45, "unit": "µM"}]}, {"smiles": "O=C(Oc1cc(OC(=O)c2cc(O)c(O)c(OC(=O)c3cc(O)c(O)c(OC(=O)c4cc(O)c(O)c(OC(=O)c5cc(O)c(O)c(OC(=O)c6cc(O)c(O)c(O)c6)c5)c4)c3)c2)cc(OC(=O)c2cc(O)c(O)c(OC(=O)c3cc(O)c(O)c(OC(=O)c4cc(O)c(O)c(OC(=O)c5cc(O)c(O)c(OC(=O)c6cc(O)c(O)c(O)c6)c5)c4)c3)c2)c1)c1cc(O)c(O)c(OC(=O)c2cc(O)c(O)c(OC(=O)c3cc(O)c(O)c(OC(=O)c4cc(O)c(O)c(OC(=O)c5cc(O)c(O)c(O)c5)c4)c3)c2)c1", "note": "[Phloroglucinol 15G]", "values": [{"measurement": "IC50", "setting": "SARS-CoV-2 3CLPro [4]; [11]", "result": 0.934, "unit": "µM"}]}, {"smiles": "CCC(CC)COC(=O)[C@H](C)N[P@](=O)(OC[C@H]1O[C@@](C#N)(c2ccc3c(N)ncnn23)[C@H](O)[C@@H]1O)Oc1ccccc1", "note": "[Remdesivir]", "values": [{"measurement": "EC99 against SARS-CoV-2 infection", "setting": "SARS-CoV-2 [5]; Vero E6, cell layer", "result": "15 µM and 15.000 µM"}, {"measurement": "EC99 against SARS-CoV-2 infection", "setting": "SARS-CoV-2 [5]; Vero E6, supernatant", "result": "15 µM and 15.000 µM"}, {"measurement": "CC50", "setting": "[6]; Choy et al.", "result": "> 100", "unit": "µM"}, {"measurement": "CC50", "setting": "[6]; Jeon et al.", "result": "> 25", "unit": "µM"}, {"measurement": "CC50", "setting": "[6]; Pruijssers et al.", "result": "> 10", "unit": "µM"}, {"measurement": "CC50", "setting": "[6]; Runfeng et al.", "result": 111, "unit": "µM"}, {"measurement": "CC50", "setting": "[6]; Wang et al.", "result": "> 100", "unit": "µM"}]}, {"smiles": "O=C(OC[C@H]1O[C@@H](OC(=O)c2cc(O)c(O)c(OC(=O)c3cc(O)c(O)c(O)c3)c2)[C@H](OC(=O)c2cc(O)c(O)c(OC(=O)c3cc(O)c(O)c(O)c3)c2)[C@@H](OC(=O)c2cc(O)c(O)c(OC(=O)c3cc(O)c(O)c(O)c3)c2)[C@@H]1OC(=O)c1cc(O)c(O)c(OC(=O)c2cc(O)c(O)c(O)c2)c1)c1cc(O)c(O)c(OC(=O)c2cc(O)c(O)c(O)c2)c1", "note": "[SNB01]", "values": [{"measurement": "IC50", "setting": "[7]", "result": "~0.474", "unit": "µM"}]}, {"smiles": "O=C(OC[C@H]1O[C@H](OC(=O)c2cc(O)c(O)c(O)c2)[C@H](OC(=O)c2cc(O)c(O)c(O)c2)[C@@H](OC(=O)c2cc(O)c(O)c(O)c2)[C@@H]1OC(=O)c1cc(O)c(O)c(O)c1)c1cc(O)c(O)c(O)c1", "note": "[Sample 1]", "values": [{"measurement": "remaining activity at 3 µM", "setting": "2019-nCoV 3CLPro", "result": 52, "unit": "%"}]}, {"smiles": "O=C(OC[C@H]1O[C@@H](OC(=O)c2cc(O)c(O)c(O)c2)[C@H](OC(=O)c2cc(O)c(O)c(O)c2)[C@@H](OC(=O)c2cc(O)c(O)c(O)c2)[C@@H]1OC(=O)c1cc(O)c(O)c(O)c1)c1cc(O)c(O)c(O)c1", "note": "[Sample 2, (2S,3R,4S,5R,6R)-3,4,5-tris(3,4,5-trihydroxybenzoyloxy)-6-((3,4,5-trihydroxybenzoyloxy)methyl)oxan-2-yl 3,4,5-trihydroxybenzoate]", "values": [{"measurement": "remaining activity at 3 µM", "setting": "2019-nCoV 3CLPro", "result": 55, "unit": "%"}, {"measurement": "remaining activity at 1 µM", "setting": "[8]", "result": 57, "unit": "%"}]}, {"smiles": "O=C(OC[C@H]1O[C@H](OC(=O)c2cc(O)c(O)c(OC(=O)c3cc(O)c(O)c(O)c3)c2)[C@H](OC(=O)c2cc(O)c(O)c(OC(=O)c3cc(O)c(O)c(O)c3)c2)[C@@H](OC(=O)c2cc(O)c(O)c(OC(=O)c3cc(O)c(O)c(O)c3)c2)[C@@H]1OC(=O)c1cc(O)c(O)c(OC(=O)c2cc(O)c(O)c(O)c2)c1)c1cc(O)c(O)c(OC(=O)c2cc(O)c(O)c(O)c2)c1", "note": "[Sample 3]", "values": [{"measurement": "Residual Protease Activity (%) 3 μM", "setting": "2019-nCoV 3CLPro", "result": "−2", "unit": "%"}, {"measurement": "remaining activity at 1 µM", "setting": "[8]; 1 μM sample", "result": 39, "unit": "%"}, {"measurement": "IC50", "setting": "SARS-CoV-2 3CLPro [4]; [12]", "result": "< 0.882", "unit": "µM"}, {"measurement": "IC50", "setting": "SARS-CoV-2 3CLPro [4]; [9]", "result": "0.666 µM and 0.665 µM"}]}, {"smiles": "O=C(OC[C@H]1O[C@@H](OC(=O)c2cc(O)c(O)c(OC(=O)c3cc(O)c(O)c(O)c3)c2)[C@H](OC(=O)c2cc(O)c(O)c(OC(=O)c3cc(O)c(O)c(O)c3)c2)[C@@H](OC(=O)c2cc(O)c(O)c(OC(=O)c3cc(O)c(O)c(O)c3)c2)[C@@H]1OC(=O)c1cc(O)c(O)c(OC(=O)c2cc(O)c(O)c(O)c2)c1)c1cc(O)c(O)c(OC(=O)c2cc(O)c(O)c(O)c2)c1", "note": "[Sample 4, (2S,3R,4S,5R,6R)-3,4,5-tris(3,4-dihydroxy-5-(3,4,5-trihydroxybenzoyloxy)benzoyloxy)-6-((3,4-dihydroxy-5-(3,4,5-trihydroxybenzoyloxy)benzoyloxy)methyl)oxan-2-yl 3,4-dihydroxy-5-(3,4,5-trihydroxybenzoyloxy)benzoate]", "values": [{"measurement": "Residual Protease Activity (%) 3 μM", "setting": "2019-nCoV 3CLPro", "result": "−9", "unit": "%"}, {"measurement": "remaining activity at 1 µM", "setting": "[8]; 1 μM sample", "result": 43, "unit": "%"}, {"measurement": "binding to 3CLPro by native-PAGE mobility shift", "setting": "SARS-CoV-2 3CLPro [2]", "result": "significant binding"}, {"measurement": "IC50", "setting": "SARS-CoV-2 3CLPro [4]; [12]", "result": "< 0.882", "unit": "µM"}, {"measurement": "IC50", "setting": "SARS-CoV-2 3CLPro [4]; [9]", "result": 0.806, "unit": "µM"}]}, {"smiles": "O=C(OC[C@H]1O[C@@H](OC(=O)c2cc(O)c(O)c(OC(=O)c3cc(O)c(O)c(OC(=O)c4cc(O)c(O)c(O)c4)c3)c2)[C@H](OC(=O)c2cc(O)c(O)c(OC(=O)c3cc(O)c(O)c(OC(=O)c4cc(O)c(O)c(O)c4)c3)c2)[C@@H](OC(=O)c2cc(O)c(O)c(OC(=O)c3cc(O)c(O)c(OC(=O)c4cc(O)c(O)c(O)c4)c3)c2)[C@@H]1OC(=O)c1cc(O)c(O)c(OC(=O)c2cc(O)c(O)c(OC(=O)c3cc(O)c(O)c(O)c3)c2)c1)c1cc(O)c(O)c(OC(=O)c2cc(O)c(O)c(OC(=O)c3cc(O)c(O)c(O)c3)c2)c1", "note": "[Sample 6, (2S,3R,4S,5R,6R)-6-(((3-((3,4-dihydroxy-5-((3,4,5-trihydroxybenzoyl)oxy)benzoyl)oxy)-4,5-dihydroxybenzoyl)oxy)methyl)tetrahydro-2H-pyran-2,3,4,5-tetrayl tetrakis(3-((3,4-dihydroxy-5-((3,4,5-trihydroxybenzoyl)oxy)benzoyl)oxy)-4,5-dihydroxybenzoate)]", "values": [{"measurement": "remaining activity at 1 µM", "setting": "[8]; 1 μM sample", "result": 39, "unit": "%"}, {"measurement": "binding to 3CLPro by native-PAGE mobility shift", "setting": "SARS-CoV-2 3CLPro [2]", "result": "significant binding"}, {"measurement": "IC50", "setting": "SARS-CoV-2 3CLPro [4]; [12]", "result": "< 0.609", "unit": "µM"}, {"measurement": "IC50", "setting": "SARS-CoV-2 3CLPro [4]; [9]", "result": 0.602, "unit": "µM"}, {"measurement": "IC50", "setting": "SARS-CoV-2 3CLPro [4]; [10]", "result": 0.602, "unit": "µM"}]}, {"smiles": "O=C(Oc1ccccc1)c1cc(O)c(O)c(OC(=O)c2cc(O)c(O)c(OC(=O)c3cc(O)c(O)c(O)c3)c2)c1", "note": "[phenol 3G]", "values": [{"measurement": "IC50", "setting": "SARS-CoV-2 3CLPro [4]; IC50, Table 34, final DMSO concentration 0.40%", "result": 6.44, "unit": "µM"}, {"measurement": "IC50", "setting": "SARS-CoV-2 3CLPro [4]; [11]", "result": 6.44, "unit": "µM"}]}]}
